PMC3665789 (PLoS ONE, 2013)
Like-named read-outs stand apart in the source and are kept apart here.

Key:
[1] = tested on: drug-resistant HIV strains; settings: read-out: Median EC50; median over 6 drug-resistant HIV-1 strains in MT-4
HIV-1 HE (R5/X4) = settings: read-out: EC50 (µM ± SEM), PBMCs, p24 Ag ELISA
PBMCs [2] = assay: Activation markers CD25 and CD69 on PBMCs (flow cytometry); assay type: cell-based; settings: 3 days, LabyA1 9.6 µM, PHA 0.016 µM
Description: The effects of 9.6 µM LabyA1 and 0.016 µM PHA on the expression levels of the cellular activation markers CD25 and CD69 on PBMCs was measured after 3 days of incubation at 37°C. After washing with PBS/FCS2%, cells were incubated with anti-CD4 conjugated with PerCP (BD Biosciences) and co-stained with the PE-conjugated mAbs anti-CD25 or anti-CD69 (both BD Biosciences) for 30 min at 4°C. For aspecific background staining, cells were incubated with SimulTest™ Control (IgGγ1-FITC/IgGγ2a-PE). After washing, and fixation with 1% formaldehyde solution, samples were analyzed using the FACSCalibur and CellQuest software (BD Biosciences).

[3] = tested on: HIV-1 UG273 (clinical isolate; R5); settings: PBMCs; UG273, group M subtype A; p24 Ag ELISA
[4] = tested on: HIV-1 BCF-06 (clinical isolate; X4); settings: PBMCs; BCF-06, group O; p27 Ag ELISA
HIV-1 NL4.3^RALres. (X4) = settings: read-out: EC50 (µM ± SEM); MT-4 cells; NL4.3 resistant to raltegravir (RAL); MTS/PES
[5] = tested on: HIV-1 NL4.3^AMD3100res. (X4); settings: read-out: EC50 (µM ± SEM); MT-4 cells; NL4.3 resistant to AMD3100; MTS/PES
[6] = tested on: HSV-1 TK^- RV-117 (clinical isolate); settings: HEL cells, CPE
HIV-2 ROD (R5/X4) = settings: read-out: EC50 (µM ± SEM), MT-4 cells, MTS/PES method
HIV-1 NL4.3^T20res. (X4) = settings: read-out: EC50 (µM ± SEM); MT-4 cells; NL4.3 resistant to enfuvirtide (T20); MTS/PES
[7] = tested on: DC-SIGN-mediated transmission of HIV-1 HE; settings: for p24 Ag concentration: without compound 263.9 ng/ml
Description: Raji.DC-SIGN^+ cells (200 µl; 2.5×10^6 cells/ml) were exposed to high amounts of HIV-1 HE (100 µl; p24, ∼3×10^6 pg/ml) for 1 h at 37°C. Unbound virus from the Raji.DC-SIGN^+ cells was removed by washing twice with cell culture medium. In the meantime, 100 µl of various concentrations of LabyA1 were added in a 96-well plate and incubated for 1 h with the C8166 target T cells (50 µl; 2×10^6 cells/ml). The same amount of virus exposed Raji.DC-SIGN^+ cells (Raji.DC-SIGN/HE) were mixed with the antiviral drug exposed C8166 target T cells.

[8] = Cytotoxicity assay (MTS/PES); assay type: cell-based
Description: Cytotoxicity in PBMCs (3 days), MT-4 (5 days), HUT-78 (1 day), C8166-(5 days), HEL (3 days) and Daudi cells (3 days) was measured using the MTS/PES method. The duration of the assays is given between brackets.

PBMCs [9] = assay: Bio-Plex cytokine/chemokine detection assay; assay type: cell-based; settings: 24 h; 9.6 µM LabyA1 versus 0.078 µM PHA; 27-plex
Description: Freshly isolated PBMCs from 4 individual donors were incubated for 24 h with 9.6 µM LabyA1 or 0.078 µM PHA. The cytokine/chemokine concentration in the cell culture supernatant was determined by the Bio-Plex 200 System (Bio-Rad, Hercules, CA) using the Bio-Plex Human Cytokine 27-Plex assay as described earlier.

HIV-1 NL4.3 (X4) = settings: read-out: EC50 (µM ± SEM), PBMCs, p24 Ag ELISA
[10] = tested on: HSV-2 wild-type RV-24 (clinical isolate); settings: HEL cells; HSV-2 RV-24; CPE
CXCR4 = CXCR4 (Homo sapiens, UniProt P61073); assay: Anti-CXCR4 mAb binding on SupT1 cells (flow cytometry); design: endogenous in cells; host or cells: SupT1 T cells (ATCC)
Sequence of CXCR4 (P61073 whole entry): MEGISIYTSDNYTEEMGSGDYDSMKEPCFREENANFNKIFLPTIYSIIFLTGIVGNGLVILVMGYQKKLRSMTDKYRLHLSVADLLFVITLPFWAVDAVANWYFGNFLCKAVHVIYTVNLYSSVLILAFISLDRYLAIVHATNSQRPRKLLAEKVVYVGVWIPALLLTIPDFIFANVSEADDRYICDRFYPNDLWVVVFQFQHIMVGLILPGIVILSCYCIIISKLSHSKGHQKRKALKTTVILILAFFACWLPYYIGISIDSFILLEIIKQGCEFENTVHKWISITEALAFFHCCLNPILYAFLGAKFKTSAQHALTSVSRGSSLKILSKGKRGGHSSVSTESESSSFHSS
Description: To determine the interaction of LabyA1 with CD4, SupT1 cells (100 µl; 3×10^6 cells/ml) were incubated for 20 min at 4°C with 9.6 µM, 1.9 µM or 0 µM LabyA1. After extensive washing with PBS/FCS2% (PBS supplemented with 2% FCS), anti-CD4-PE conjugated mAbs RPA-T4 (eBioscience, Vienna, Austria), MT441 (Ancell, Enzo Life sciences) and OKT-4 (eBioscience) were added for 30 min at 4°C. For aspecific background staining, cells were incubated with SimulTest™ Control (IgGγ1-FITC/IgGγ2a-PE) (BD Biosciences). After washing, and fixation with 1% formaldehyde solution, samples were analyzed using the FACSCalibur and CellQuest software (BD Biosciences). The same protocol was applied for anti-CXCR4 evaluation using the fluorochrome conjugated mAbs 12G5-PE and 2B11-FITC (both BD Biosciences).

[11] = tested on: HIV-1 CI#17 (clinical isolate; X4); settings: PBMCs; CI#17, group M subtype B; p24 Ag ELISA
[12] = tested on: HIV-1 ETH2220 (clinical isolate; R5); settings: PBMCs; ETH2220, group M subtype C; p24 Ag ELISA

## C/C=C1\NC(=O)[C@H](Cc2ccccc2)NC(=O)[C@@H]2CCCN2C(=O)[C@H](C(C)C)NC(=O)[C@H](Cc2c[nH]c3ccccc23)NC(=O)[C@]23CSC[C@H](NC1=O)C(=O)N[C@H](C(=O)O)CSSC[C@H](NC(=O)[C@@H]1CSC[C@]4(C[C@H](N)C(=O)N[C@@H](CC(N)=O)C(=O)N[C@@H](C)C(=O)N4)C(=O)N[C@@H](C(C)C)C(=O)N[C@@H](Cc4c[nH]c5ccccc45)C(=O)N[C@@H](CCC(=O)O)C(=O)N1)C(=O)N[C@@H](C2)C(=O)N[C@@H]([C@@H](C)O)C(=O)NCC(=O)N3 [LabyA1, labyrinthopeptin A1]
[1]
  EC50: 2.1 µM
HIV-1 HE (R5/X4)
  EC50: 1.8 ± 0.3 µM
PBMCs [2]; untreated 1.4±0.8%
  percentage of CD4+CD69+ cells: no significant effects
PBMCs [2]; untreated 10.7±3.2%
  percentage of CD4+CD25+ cells: no significant effects
[3]
  EC50: 1.9 ± 0.1 µM
[4]
  EC50: 0.83 ± 0.33 µM
HIV-1 NL4.3^RALres. (X4)
  EC50: 0.88 ± 0.08 µM
[5]
  EC50: 2.4 ± 0.5 µM
[6]
  EC50: 1.9 ± 0.6 µM
HIV-2 ROD (R5/X4)
  EC50: 1.9 ± 0.7 µM
HIV-1 NL4.3^T20res. (X4)
  EC50: 2.3 ± 0.3 µM
[7]; 9.6 µM
  giant cell formation: fully protected the cells from giant cell formation
  p24 Ag concentration: < 25 pg/mL
[7]; 1.9 and 0.19 µM
  inhibitory effect: not detectable
  p24 Ag concentration: 393700 pg/mL
[7]; read-out: EC50, DC-SIGN-mediated transmission and subsequent replication of HIV-1, Raji.DC-SIGN/HE cocultured with C8166 T cells, 24 h
  EC50: 4.1 µM
[8]; C8166 cells, 5 days
  CC50: 23 µM
[8]; Daudi cells, 3 days
  CC50: > 48 µM
[8]; HUT-78 cells, 1 day
  CC50: > 31 µM
[8]; MT-4 cells, 5 days
  CC50: 33 µM
[8]; PBMCs, 3 days
  CC50: 45 µM
PBMCs [9]
  cytokine/chemokine response of treated PBMCs: much weaker, if any
HIV-1 NL4.3 (X4)
  EC50: 0.79 ± 0.09 µM
[10]
  EC50: 0.41 ± 0.28 µM
CXCR4; SupT1 cells, 9.6 µM and 1.9 µM
  inhibition of binding of anti-CXCR4 mAb 12G5: unable to inhibit
CXCR4; data not shown
  binding of anti-CXCR4 mAbs clone 12G5 and 2B11 to CXCR4: did not affect the binding
[11]
  EC50: 1 ± 0.2 µM
[12]
  EC50: 0.78 ± 0.06 µM
